Laboratory results published in ChEMBL document CHEMBL2331276, “A novel class of 3-(phenoxy-phenyl-methyl)-pyrrolidines as potent and balanced norepinephrine and serotonin reuptake inhibitors: synthesis and structure-activity relationships” (Bioorg Med Chem Lett, 2013).

Assays:
in vitro [1] = conditions: human, liver microsomes
in vitro [2] = conditions: rat, liver microsomes
[3] = AUC in rat at 10 mg/kg, po; format: ADME, organism-based; parameters: dose 10 mg/kg, route oral; conditions: plasma
[4] = Oral bioavailability in rat at 10 mg/kg; format: ADME, organism-based; conditions: in vivo

| SMILES | microsomal CLint (in vitro [1]) [µL/min/mg] | microsomal CLint (in vitro [2]) [µL/min/mg] | AUC [3] [ng·h/mL] | bioavailability [4] [%] |
| --- | --- | --- | --- | --- |
| Fc1ccc(F)c(O[C@H](c2ccccc2)[C@@H]2CCNC2)c1Cl | 115 | 1340 |  |  |
| COc1cc(Cl)ccc1O[C@@H](c1ccccc1)[C@H]1CCNC1 | < 5 | 1990 |  |  |
| Clc1cc(Cl)cc(O[C@@H](c2ccccc2)[C@H]2CCNC2)c1 | < 5 | 4530 |  |  |
| COc1cc([N+](=O)[O-])ccc1O[C@@H](c1ccccc1)[C@H]1CCNC1 | < 5 |  |  |  |
| Fc1cc(F)c(F)c(O[C@H](c2ccccc2)[C@@H]2CCNC2)c1F | < 5 | 200 |  |  |
| Clc1cc(Cl)c(Cl)c(O[C@H](c2ccccc2)[C@@H]2CCNC2)c1 | < 5 | 100 |  |  |
| CCOc1ccccc1O[C@@H](c1ccccc1)[C@@H]1CNCCO1 [ESREBOXETINE] | 570 | 5100 |  |  |
| Clc1cccc(O[C@@H](c2ccccc2)[C@H]2CCNC2)c1Cl | < 5 |  |  |  |
| Clc1ccc(Cl)c(O[C@@H](c2ccccc2)[C@H]2CCNC2)c1Cl | < 5 | 4620 |  |  |
| Fc1ccc(F)c(O[C@@H](c2ccccc2)[C@H]2CCNC2)c1Cl | 113 | 1660 |  |  |
| Clc1cc(Cl)cc(O[C@H](c2ccccc2)[C@@H]2CCNC2)c1 | < 5 | 21 |  |  |
| CCN(CC)C(=O)C1(c2ccccc2)CC1CN (stereo not drawn) | < 5 | < 5 |  |  |
| Fc1ccc(O[C@@H](c2ccccc2)[C@H]2CCNC2)c(Cl)c1 | < 5 | 185 |  |  |
| Clc1ccc(Cl)c(O[C@H](c2ccccc2)[C@@H]2CCNC2)c1Cl | < 5 | 4600 | 70 | 6 |
